We go through 23 compounds from patent US20240368122A1, “JAK2 INHIBITORS AND METHODS OF USE THEREOF” (RELAY THERAPEUTICS, INC., priority 2021, published 2024).

Assay [1] has as its target T1, JAK2 JH2 WT (V536-D812) [W659A, W777A, F794H solubilizing mutations] (Homo sapiens, UniProt O60674, F794H/W659A/W777A).
T1 construct: **JAK2 JH2 WT (V536-D812) [W659A, W777A, F794H solubilizing mutations]; C-thrombin-avi-His6; thrombin cleavage site (C); His6 (C); purchased Biortus
Nature of the assay: Surface Plasmon Resonance (SPR) binding assay, JAK2 JH2 domain. The protocol:
Selected compounds of the present disclosure were tested in a Surface Plasmon Resonance (SPR) Assay to measure their binding kinetics and affinity for proteins of interest.
Prepare buffer: 50 mM HEPES pH 7.5, 150 mM NaCl, 0.05% (v/v) Tween, and 10% (v/v) glycerol were combined and pH was adjusted to 7.5, then filtered. 5 mM DTT, was added, and buffer without DMSO was reserved for compound resuspension. 2% (v/v) DMSO was added for assay buffer, and separately 1% DMSO was used to make buffer for resuspending compounds.
Prepare compounds: Using a Bravo liquid handler, 99 μL of 1% (v/v) DMSO assay buffer was added to 1 μL compounds in DMSO.
Run 8K Method: Biotin CAPture (CAP) chip surface was regenerated prior to run by: Inserting CAP chip into Biacore 8K, prime machine with assay buffer with 2% (v/v) DMSO; Setting instrument temperature to 20° C.; Conditioning surface with NaOH/GdnHCl reagents from CAP chip kit (60 seconds, 10 μL/min); and Capturing oligo-Streptavidin (SA) reagent from CAP kit (600 seconds, 1 μL/min), expected capture ˜2500 RU. JAK2 JH1 or JH2 protein was immobilized by preparing a sample of 0.5 uM JH1 or 0.4 uM JH2 protein diluted in assay buffer without DMSO and supplemented with 10 uM of a selected compound of the invention as a stabilizer (370 seconds, 5 uL/min), expected capture ˜1000 RU. Remaining biotin sites on SA were blocked with 1 uM biotin (30 seconds, 20 uL/min), then equilibrated for 1800 seconds at 100 uL/min. Compounds being assayed were run in single cycle kinetics: 4 doses with a top concentration of 5 uM (JH1) or 500 nM (JH2), dilution factor of 3, at 20° C., for a contact time of 60 seconds, and a dissociation time of 300 seconds (JH1) or 1200 seconds (JH2), at a flow rate of 30 uL/min. The surface was completely regenerated after each compound is run, and JH1 or JH2 protein was immobilized fresh prior to each new compound. Data were fitted kinetically with 1:1 binding model using Biacore Insight Evaluation Software.

Assay [2] concerns TF1 JAK2 V617F STAT3 reporter. The experiment in a line: Cellular TF1 STAT3 assay (luciferase reporter), JAK2 V617F. The format is cell-based. The settings on record: read-out: Cell PD-TF1 JAK2 V617F STAT3 (IC50). The protocol:
(§1) Selected compounds of the present disclosure were tested in a Cellular TF1 STAT3 or STAT5 assay, to measure the degree of JAK2-mediated STAT3 or STAT5 phosphorylation, respectively. TF1 cells (immortalized erythroleukemia line) expressing either wildtype or V617F mutant JAK2 with a luciferase reporter were used.
(§2) Cell culture: Cells were put into antibiotic selection (1 ug/ml puro+500 ug/ml Geneticin) when first thawed then maintained in growth media without antibiotics. Cells were maintained in exponential growth phase, between 0.02-1 E6 cells/ml.
(§3) Compound preparation: Compounds were screened as 10-point dose response curves 1:3 dilutions. DMSO is used as the vehicle control. All wells were normalized to the same final DMSO concentration. Compounds were pre-spotted onto 384 well plates using an Echo acoustic dispenser, 50 nL of 1000× (10 mM top concentration) DMSO stock/well. Each compound is run in triplicate plates.
(§4) Cell plating: Cells were counted using Vi-Cell XR, then cells were spun down and resuspended in growth media to 200,000 cells/ml. Cells were added to plates containing compound. 10,000 cells/well in 50 ul volume using a Biomek liquid handler. Plates were briefly mixed on a shaker for 1 minute at 2500 rpm then placed in a 37° C., 5% CO2 incubator overnight for 18-20 hrs.
(§5) Measuring luciferase activity: ONE-glo reagent was brought to room temperature, and 25 μL of ONE-glo assay reagent was added to each well using Biomek liquid handler. The plates were incubated for 10 minutes at room temperature, then luminescence was measured on an Envision plate reader.

Assay [3] relates to TF1 JAK2 V617F STAT5 reporter. Nature of the assay: Cellular TF1 STAT5 assay (luciferase reporter), JAK2 V617F. The format is cell-based. The settings on record: read-out: Cell PD TF1 V617F STAT5 (IC50). The protocol:
as §1, §2, §3, §4, §5

Where [4] appears, read: Homo sapiens, TF-1, TF1 cells, JAK2 V617F.

Where two headings read alike, the source gives them in different places.

T1 sequence (O60674 536-812 W659A/W777A/F794H): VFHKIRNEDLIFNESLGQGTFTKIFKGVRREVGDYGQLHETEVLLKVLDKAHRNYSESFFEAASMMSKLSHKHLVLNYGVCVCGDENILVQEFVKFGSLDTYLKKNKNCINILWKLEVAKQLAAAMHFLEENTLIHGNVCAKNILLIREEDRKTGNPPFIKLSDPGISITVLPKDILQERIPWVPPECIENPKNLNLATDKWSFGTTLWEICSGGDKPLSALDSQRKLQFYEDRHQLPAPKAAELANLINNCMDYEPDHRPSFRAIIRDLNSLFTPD

Turning to `CNC(=O)c1nnc(NC(=O)C2CC2)cc1Nc1cccc(-c2ccc(C(=O)N(C)C[C@@H]3Cc4ccccc4CO3)nc2)c1OC` (single isomer, unassigned) [Compound 138], in assay [1] (SPR, JAK2 JH2 domain), the Kd was in the range of 10 to 50 nM. Further, the IC50 lay in the range of 500 to 5000 nM in assay [2] (TF1 JAK2 V617F) and 5000 to 100000 nM in assay [3] (TF1 JAK2 V617F).
In assay [1] (SPR, JAK2 JH2 domain), `CNC(=O)c1nnc(NC(=O)C2CC2)cc1Nc1cccc(-c2ccc(C(=O)N(C)C[C@H]3Cc4ccccc4CO3)nc2)c1OC` (single isomer, unassigned) [Compound 139] had a Kd of 10 to 50 nM. In addition, the IC50 lay in the range of 500 to 5000 nM in assay [2] (TF1 JAK2 V617F) and 5000 to 100000 nM in assay [3] (TF1 JAK2 V617F).
In the case of `CNC(=O)c1nnc(NC(=O)C2CC2)cc1Nc1cccc(-c2ccc(C(=O)N(C)C[C@@H]3CCCO3)nc2)c1OC` (single isomer, unassigned) [Compound 140], in assay [1] (SPR, JAK2 JH2 domain), the Kd is 10 to 50 nM. Moreover, the IC50 in assay [2] (TF1 JAK2 V617F) and in assay [3] (TF1 JAK2 V617F) was 5000 to 100000 nM throughout.
In turn, `CNC(=O)c1nnc(NC(=O)C2CC2)cc1Nc1cccc(-c2ccc(C(=O)N(C)[C@@H](C)c3ccn(C)n3)nc2)c1OC` (single isomer, unassigned) [Compound 160] registered a Kd in assay [1] (SPR, JAK2 JH2 domain) of 0.01 to 10 nM. Further, the IC50 in assay [2] (TF1 JAK2 V617F) and in assay [3] (TF1 JAK2 V617F) was 500 to 5000 nM in each case.
Turning to `CNC(=O)c1nnc(NC(=O)C2CC2)cc1Nc1cccc(-c2ccc(C(=O)N(C)[C@H](C)c3ccn(C)n3)nc2)c1OC` (single isomer, unassigned) [Compound 161], the Kd in assay [1] (SPR, JAK2 JH2 domain) is 0.01 to 10 nM. Also, the IC50 in assay [2] (TF1 JAK2 V617F) and in assay [3] (TF1 JAK2 V617F) was 500 to 5000 nM throughout.
On to `CNC(=O)c1nnc(NC(=O)C2CC2)cc1Nc1cccc(-c2cnn(C3CN([C@@H](C)c4ccccn4)C3)c2)c1OC` (single isomer, unassigned) [Compound 162], for which the Kd in assay [1] (SPR, JAK2 JH2 domain) was in the range of 0.01 to 10 nM. In addition, the results for the IC50 in assay [2] (TF1 JAK2 V617F) and in assay [3] (TF1 JAK2 V617F) were 50 to 500 nM and 500 to 5000 nM, respectively.
The matching figures for `CNC(=O)c1nnc(NC(=O)C2CC2)cc1Nc1cccc(-c2cnn(C3CN([C@H](C)c4ccccn4)C3)c2)c1OC` (single isomer, unassigned) [Compound 163]: 0.01 to 10 nM, 500 to 5000 nM and 5000 to 100000 nM.
In assay [1] (SPR, JAK2 JH2 domain), `CNC(=O)c1nnc(NC(=O)C2CC2)cc1Nc1cccc(-c2ccc(C(=O)N(C)[C@H](C)c3cc(C#N)ccn3)nc2)c1OC` (single isomer, unassigned) [Compound 181] returned a Kd of 0.01 to 10 nM. Besides, the IC50 in assay [2] (TF1 JAK2 V617F) and in assay [3] (TF1 JAK2 V617F) was 500 to 5000 nM in each case.
In assay [1] (SPR, JAK2 JH2 domain), `CNC(=O)c1nnc(NC(=O)C2CC2)cc1Nc1cccc(-c2ccc(C(=O)N(C)CC3=NO[C@@H]4CCCC[C@H]34)nc2)c1OC` (single isomer, unassigned) [Compound 193] displayed a Kd of 0.01 to 10 nM. For the same compound, the IC50 in assay [2] (TF1 JAK2 V617F) and in assay [3] (TF1 JAK2 V617F) was 50 to 500 nM throughout.
In assay [1] (SPR, JAK2 JH2 domain), `CNC(=O)c1nnc(NC(=O)C2CC2)cc1Nc1cccc(-c2ccc(C(=O)N(C)CC3=NO[C@H]4CCCC[C@@H]34)nc2)c1OC` (single isomer, unassigned) [Compound 194] showed a Kd of 0.01 to 10 nM. Besides, the IC50 in assay [2] (TF1 JAK2 V617F) and in assay [3] (TF1 JAK2 V617F) was 500 to 5000 nM throughout.
`CNC(=O)c1nnc(NC(=O)C2CC2)cc1Nc1cccc(-c2ccc(C(=O)N(C)C[C@H]3CCCC3(F)F)cc2)c1OC` (single isomer, unassigned) [Compound 206]: the Kd in assay [1] was in the range of 10 to 50 nM. The IC50 in assay [2] (setting [4]) and in assay [3] (setting [4]) was 5000 to 100000 nM throughout.
In turn, `CNC(=O)c1nnc(NC(=O)C2CC2)cc1Nc1cccc(-c2ccc(C(=O)N(C)C[C@H]3CCS(=O)(=O)C3)nc2)c1OC` (single isomer, unassigned) [Compound 207] yielded a Kd in assay [1] of 0.01 to 10 nM. In addition, the IC50 in assay [2] (setting [4]) and in assay [3] (setting [4]) was 5000 to 100000 nM each time.
For the compound `CNC(=O)c1nnc(NC(=O)C2CC2)cc1Nc1cccc(-c2ccc(C(=O)N(C)C[C@@H]3CCCC3(F)F)cc2)c1OC` (single isomer, unassigned) [Compound 208], in assay [1], the dissociation constant Kd was 0.01 to 10 nM. Further, the IC50 in assay [2] (setting [4]) and in assay [3] (setting [4]) was 5000 to 100000 nM in each case.
With `CNC(=O)c1nnc(NC(=O)C2CC2)cc1Nc1cccc(-c2ccc(C(=O)N(C)C[C@@H]3CCS(=O)(=O)C3)nc2)c1OC` (single isomer, unassigned) [Compound 209], the Kd in assay [1] was 10 to 50 nM. For the same compound, the IC50 in assay [2] (setting [4]) and in assay [3] (setting [4]) was 5000 to 100000 nM throughout.
As to `CNC(=O)c1nnc(NC(=O)C2CC2)cc1Nc1cccc(-c2ccc(C(=O)N(C)C[C@@H]3CCCC3(F)F)nc2)c1OC` (single isomer, unassigned) [Compound 225], the Kd in assay [1] lay within 10 to 50 nM. Further, the IC50 in assay [2] (setting [4]) and in assay [3] (setting [4]) was 5000 to 100000 nM each time.
As for `CNC(=O)c1nnc(NC(=O)C2CC2)cc1Nc1cccc(-c2ccc(C(=O)N(C)C[C@H]3CCCC3(F)F)nc2)c1OC` (single isomer, unassigned) [Compound 226], the Kd in assay [1] is 10 to 50 nM. Besides, the IC50 in assay [2] (setting [4]) and in assay [3] (setting [4]) was 5000 to 100000 nM throughout.
In assay [1], `CNC(=O)c1nnc(NC(=O)C2CC2)cc1Nc1cccc(C(=O)N[C@@H](C)C2CN(Cc3ccccn3)C2)c1OC` (single isomer, unassigned) [Compound 245] showed a Kd of 50 to 500 nM. Besides, the IC50 in assay [2] (setting [4]) and in assay [3] (setting [4]) was 5000 to 100000 nM each time.
In assay [1], `CNC(=O)c1nnc(NC(=O)C2CC2)cc1Nc1cccc(C(=O)N[C@H](C)C2CN(Cc3ccccn3)C2)c1OC` (single isomer, unassigned) [Compound 246] displayed a Kd of 50 to 500 nM. For the same compound, the IC50 in assay [2] (setting [4]) and in assay [3] (setting [4]) was 5000 to 100000 nM in each case.
`CNC(=O)c1nnc(NC(=O)C2CC2)cc1Nc1cccc(-c2cnn(C3CN([C@H](C)c4cccc(C#N)n4)C3)c2)c1OC` (single isomer, unassigned) [Compound 283] registered a Kd in assay [1] of 0.01 to 10 nM. Moreover, the IC50 in assay [2] (setting [4]) and in assay [3] (setting [4]) was 500 to 5000 nM in each case.
Regarding `CNC(=O)c1nnc(NC(=O)C2CC2)cc1Nc1cccc(-c2cnn(C3CN([C@@H](C)c4cccc(C#N)n4)C3)c2)c1OC` (single isomer, unassigned) [Compound 286], in assay [1], the Kd lay within 0.01 to 10 nM. Further, the IC50 in assay [2] (setting [4]) and in assay [3] (setting [4]) was 50 to 500 nM throughout.
In assay [1], `CNC(=O)c1nnc(NC(=O)C2CC2)cc1Nc1cccc(-c2cnn([C@@H]3CCN(Cc4cccc(C#N)n4)C3)c2)c1OC` (single isomer, unassigned) [Compound 318] displayed a Kd of 0.01 to 10 nM. The IC50 in assay [2] (setting [4]) and in assay [3] (setting [4]) was 500 to 5000 nM in each case.
As to `CNC(=O)c1nnc(NC(=O)C2CC2)cc1Nc1cccc(-c2cnn([C@H]3CCN(Cc4ccccn4)C3)c2)c1OC` (single isomer, unassigned) [Compound 333], the Kd in assay [1] lay within 0.01 to 10 nM. For the same compound, the IC50 in assay [2] (setting [4]) and in assay [3] (setting [4]) was 500 to 5000 nM in each case.
As to `CNC(=O)c1nnc(NC(=O)C2CC2)cc1Nc1cccc(-c2cnn([C@@H]3CCN(Cc4ccccn4)C3)c2)c1OC` (single isomer, unassigned) [Compound 334], in assay [1], the Kd was 0.01 to 10 nM. The IC50 in assay [2] (setting [4]) and in assay [3] (setting [4]) was 500 to 5000 nM in each case.
